How the values were obtained:
mouse = conditions: Subchronic oral toxicity in rodents, b6c3f1, Feed, dose end: 91 day, group: systemic
rat [1] = conditions: Subchronic oral toxicity in rodents, wistar, Feed, dose end: 3 month
rat [2] = conditions: Multigenerational reproductive toxicity study, wistar (Chbb = THOM-SPF), Oral, Feed, dose end: 1 generation
rabbit [3] = conditions: Prenatal developmental toxicity study, himalayan, Oral, Gavage/Intubation, dose end: 28 GD
rat [4] = conditions: Prenatal developmental toxicity study, wistar, Oral, Gavage/Intubation, dose end: 19 GD
rat [5] = conditions: Combined chronic toxicity/carcinogenicity; wistar; Oral; Feed; dose end: 104 week; group: systemic; systemic / in life observation / body weight / body weight + systemic / in life observation / body weight / body weight gain + systemic / …
dog [6] = conditions: Subchronic oral toxicity in nonrodent, beagle, Feed, dose end: 52 week, group: systemic, systemic / clinical chemistry / albumin / albumin + systemic / clinical chemistry / cholesterol / cholesterol + systemic / clinical …
rabbit [7] = conditions: Prenatal developmental toxicity study, new zealand white, Oral, Gavage/Intubation, dose end: 18 GD
rat [8] = conditions: Prenatal developmental toxicity study, sprague dawley, Oral, Gavage/Intubation, dose end: 15 GD
rat [9] = conditions: Subchronic dermal toxicity, sprague dawley, Topical, dose end: 13 week, group: systemic, systemic / in life observation / body weight / body weight + systemic / in life observation / food consumption / food consumption + systemic…
rat [10] = conditions: Prenatal developmental toxicity study; wistar; Oral; Feed; dose end: 21 GD; group: maternal; systemic / in life observation / food consumption / food consumption + systemic / in life observation / water consumption / water …
rat [11] = conditions: Subchronic oral toxicity in rodents, wistar, Feed, dose end: 90 day, group: systemic
dog [12] = conditions: Chronic toxicity, beagle, Oral, Capsule, dose end: 12 month, group: systemic
dog [13] = conditions: Chronic toxicity; beagle; Oral; Capsule; dose end: 52 week; group: systemic; systemic / in life observation / body weight / body weight + systemic / in life observation / body weight / body weight gain + systemic / …
[14] = systemic / clinical chemistry / triglycerides / triglycerides + systemic / clinical chemistry / urea nitrogen / urea + systemic / in life …
[15] = systemic / pathology microscopic / stomach / erosion
[16] = group: cholinesterase, cholinesterase / cholinesterase / cholinesterase / cholinesterase (che)
[17] = group: systemic, systemic / in life observation / body weight / body weight + systemic / in life observation / body weight / body weight gain + systemic / in…
[18] = group: offspring, systemic / in life observation / body weight / offspring (pup) weight
[19] = group: parental, systemic / in life observation / body weight / body weight + systemic / in life observation / body weight / body weight gain + systemic / in…
[20] = group: developmental, developmental / developmental malformation / bone / absent
[21] = group: maternal, reproductive / reproductive performance / postimplantation loss / postimplantation loss + reproductive / reproductive performance / …
[22] = group: maternal, systemic / in life observation / body weight / body weight gain + systemic / in life observation / food consumption / food consumption + …
[23] = group: developmental, developmental / developmental malformation / bone / cervical + developmental / developmental malformation / kidney / dilated renal pelvis
[24] = group: maternal, systemic / in life observation / body weight / body weight + systemic / in life observation / body weight / body weight gain + systemic / in…
[25] = group: developmental, developmental / developmental malformation / general / [other]
[26] = group: maternal, reproductive / reproductive performance / postimplantation loss / postimplantation loss + systemic / in life observation / food consumption…
[27] = group: developmental, developmental / developmental malformation / bone / fused
[28] = group: developmental, developmental / developmental malformation / bone / fused + developmental / developmental malformation / bone / [other] + developmental / …
[29] = group: maternal, systemic / in life observation / body weight / body weight gain + systemic / in life observation / clinical signs / salivation + …
[30] = systemic / in life observation / body weight / body weight gain + systemic / in life observation / food consumption / food consumption + …
[31] = systemic / in life observation / clinical signs / abnormal gait + systemic / in life observation / clinical signs / ataxia + systemic / in …
[32] = systemic / in life observation / clinical signs / abnormal gait + systemic / in life observation / clinical signs / convulsions

Question: For `COC(=O)N(OC)c1ccccc1COc1ccn(-c2ccc(Cl)cc2)n1` [Pyraclostrobin], which LOAEL (mouse; [14]) is on record?
Answer: Its LOAEL is 30.4 mg/kg/day.

Question: And the NOAEL (mouse; [14])?
Answer: Its NOAEL is 9.2 mg/kg/day.

Question: What about the LEL (mouse; [15]) of the same molecule?
Answer: The LEL was 12.9 mg/kg/day.

Question: What about the NEL (mouse; [15]) of the same molecule?
Answer: The NEL was < 12.9 mg/kg/day.

Question: What about the LEL (rat [1]; [16]) of the same molecule?
Answer: The LEL was 79.7 mg/kg/day.

Question: What about the LOAEL (rat [1]; [16]) of the same molecule?
Answer: The LOAEL was > 119 mg/kg/day.

Question: And the NEL (rat [1]; [16])?
Answer: Its NEL is 40.8 mg/kg/day.

Question: And the NOAEL (rat [1]; [16])?
Answer: The NOAEL was ≥ 119 mg/kg/day.

Question: And the LOAEL (rat [1]; [17])?
Answer: Its LOAEL is 34.7 mg/kg/day.

Question: And the NEL (rat [1]; [17])?
Answer: The NEL was 3.5 mg/kg/day.

Question: What about the NOAEL (rat [1]; [17]) of the same molecule?
Answer: The NOAEL was 10.7 mg/kg/day.

Question: And the LEL (rat [1]; group: systemic, systemic / pathology microscopic / spleen / histiocytosis)?
Answer: Its LEL is 10.7 mg/kg/day.

Question: What about the LEL (rat [2]; [18]) of the same molecule?
Answer: The LEL was 20.5 mg/kg/day.

Question: And the LOAEL (rat [2]; [18])?
Answer: The LOAEL was 20.5 mg/kg/day.

Question: What about the NEL (rat [2]; [18]) of the same molecule?
Answer: Its NEL is < 20.5 mg/kg/day.

Question: What about the NOAEL (rat [2]; [18]) of the same molecule?
Answer: Its NOAEL is < 20.5 mg/kg/day.

Question: What about the LOAEL (rat [2]; group: parental, systemic / in life observation / body weight / body weight + systemic / in life observation / body weight / body weight gain) of the same molecule?
Answer: The LOAEL was 39.9 mg/kg/day.

Question: What about the LEL (rat [2]; [19]) of the same molecule?
Answer: The LEL was 39.9 mg/kg/day.

Question: What about the NEL (rat [2]; [19]) of the same molecule?
Answer: The NEL was 20.5 mg/kg/day.

Question: What about the NOAEL (rat [2]; [19]) of the same molecule?
Answer: The NOAEL was 20.5 mg/kg/day.

Question: And the LEL (rabbit [3]; [20])?
Answer: The LEL was 20 mg/kg/day.

Question: And the LOAEL (rabbit [3]; [20])?
Answer: The LOAEL was > 20 mg/kg/day.

Question: What about the NEL (rabbit [3]; [20]) of the same molecule?
Answer: The NEL was 10 mg/kg/day.

Question: And the NOAEL (rabbit [3]; [20])?
Answer: Its NOAEL is ≥ 20 mg/kg/day.

Question: What about the LOAEL (rabbit [3]; [21]) of the same molecule?
Answer: Its LOAEL is 10 mg/kg/day.

Question: And the NOAEL (rabbit [3]; [21])?
Answer: Its NOAEL is 5 mg/kg/day.

Question: And the LEL (rabbit [3]; [22])?
Answer: Its LEL is 5 mg/kg/day.

Question: What about the NEL (rabbit [3]; [22]) of the same molecule?
Answer: The NEL was < 5 mg/kg/day.

Question: What about the LEL (rat [4]; [23]) of the same molecule?
Answer: The LEL was 50 mg/kg/day.

Question: And the LOAEL (rat [4]; [23])?
Answer: The LOAEL was 50 mg/kg/day.

Question: And the NEL (rat [4]; [23])?
Answer: Its NEL is 25 mg/kg/day.

Question: And the NOAEL (rat [4]; [23])?
Answer: Its NOAEL is 25 mg/kg/day.

Question: And the LEL (rat [4]; [24])?
Answer: Its LEL is 25 mg/kg/day.

Question: And the LOAEL (rat [4]; [24])?
Answer: Its LOAEL is 25 mg/kg/day.

Question: What about the NEL (rat [4]; [24]) of the same molecule?
Answer: The NEL was 10 mg/kg/day.

Question: And the NOAEL (rat [4]; [24])?
Answer: Its NOAEL is 10 mg/kg/day.

Question: What about the LEL (rat [5]) of the same molecule?
Answer: Its LEL is 9.2 mg/kg/day.

Question: What about the LOAEL (rat [5]) of the same molecule?
Answer: The LOAEL was 9.2 mg/kg/day.

Question: And the NEL (rat [5])?
Answer: Its NEL is 3.4 mg/kg/day.

Question: And the NOAEL (rat [5])?
Answer: The NOAEL was 3.4 mg/kg/day.

Question: What about the LEL (dog [6]) of the same molecule?
Answer: Its LEL is 10.8 mg/kg/day.

Question: What about the LOAEL (dog [6]) of the same molecule?
Answer: The LOAEL was 10.8 mg/kg/day.

Question: And the NEL (dog [6])?
Answer: Its NEL is 5.4 mg/kg/day.

Question: What about the NOAEL (dog [6]) of the same molecule?
Answer: Its NOAEL is 5.4 mg/kg/day.

Question: How did the LEL (rabbit [7]; [25]) turn out when `[O-][n+]1ccccc1[S-].[O-][n+]1ccccc1[S-].[Zn+2]` [Zinc pyrithione] was run?
Answer: The LEL was 3 mg/kg/day.

Question: What about the LOAEL (rabbit [7]; [25]) of the same molecule?
Answer: Its LOAEL is > 3 mg/kg/day.

Question: And the NEL (rabbit [7]; [25])?
Answer: The NEL was 1.5 mg/kg/day.

Question: And the NOAEL (rabbit [7]; [25])?
Answer: The NOAEL was ≥ 3 mg/kg/day.

Question: And the LEL (rabbit [7]; [26])?
Answer: The LEL was 1.5 mg/kg/day.

Question: What about the LOAEL (rabbit [7]; [26]) of the same molecule?
Answer: The LOAEL was 1.5 mg/kg/day.

Question: What about the NEL (rabbit [7]; [26]) of the same molecule?
Answer: Its NEL is 0.5 mg/kg/day.

Question: What about the NOAEL (rabbit [7]; [26]) of the same molecule?
Answer: The NOAEL was 0.5 mg/kg/day.

Question: What about the LEL (rat [8]; [27]) of the same molecule?
Answer: Its LEL is 3 mg/kg/day.

Question: What about the LOAEL (rat [8]; [27]) of the same molecule?
Answer: The LOAEL was 3 mg/kg/day.

Question: What about the NEL (rat [8]; [28]) of the same molecule?
Answer: The NEL was 0.75 mg/kg/day.

Question: And the NOAEL (rat [8]; [28])?
Answer: Its NOAEL is 0.75 mg/kg/day.

Question: What about the LOAEL (rat [8]; group: maternal, systemic / in life observation / body weight / body weight gain + systemic / in life observation / clinical signs / salivation) of the same molecule?
Answer: The LOAEL was 3 mg/kg/day.

Question: And the LEL (rat [8]; [29])?
Answer: The LEL was 3 mg/kg/day.

Question: What about the NEL (rat [8]; [29]) of the same molecule?
Answer: Its NEL is 0.75 mg/kg/day.

Question: What about the NOAEL (rat [8]; [29]) of the same molecule?
Answer: The NOAEL was 0.75 mg/kg/day.

Question: And the LEL (rat [9])?
Answer: Its LEL is 1000 mg/kg/day.

Question: What about the LOAEL (rat [9]) of the same molecule?
Answer: Its LOAEL is 1000 mg/kg/day.

Question: What about the NEL (rat [9]) of the same molecule?
Answer: Its NEL is 100 mg/kg/day.

Question: And the NOAEL (rat [9])?
Answer: The NOAEL was 100 mg/kg/day.

Question: Which results are given for `OC[C@H]1O[C@@H]2O[C@H]3[C@H](O)[C@@H](O)[C@@H](O[C@H]4[C@H](O)[C@@H](O)[C@@H](O[C@H]5[C@H](O)[C@@H](O)[C@@H](O[C@H]6[C@H](O)[C@@H](O)[C@@H](O[C@H]7[C@H](O)[C@@H](O)[C@@H](O[C@H]1[C@H](O)[C@H]2O)O[C@@H]7CO)O[C@@H]6CO)O[C@@H]5CO)O[C@@H]4CO)O[C@@H]3CO` [alpha-Cyclodextrin]?
Answer: LEL (rat [10]): 13.2 mg/kg/day; LOAEL (rat [10]): > 13.2 mg/kg/day; NEL (rat [10]): 6.5 mg/kg/day; NOAEL (rat [10]): ≥ 13.2 mg/kg/day

Question: Which results are given for `CC1(C)[C@H](/C=C(\Cl)C(F)(F)F)[C@@H]1C(=O)O[C@@H](C#N)c1cccc(Oc2ccccc2)c1` [lambda-Cyhalothrin]?
Answer: LEL (rat [11]; systemic / clinical chemistry / aminopyrine-n-demethylase / aminopyrine-n-demethylase + systemic / organ weight / liver / absolute): 2.5 mg/kg/day; LOAEL (rat [11]; [30]): 12.5 mg/kg/day; NEL (rat [11]; [30]): 0.5 mg/kg/day; NOAEL (rat [11]; [30]): 2.5 mg/kg/day; NEL (dog [12]; [31]): 0.1 mg/kg/day; NOAEL (dog [12]; [31]): 0.1 mg/kg/day; LEL (dog [12]; [32]): 0.5 mg/kg/day; LOAEL (dog [12]; [32]): 0.5 mg/kg/day

Question: With `CC(C)[C@@H](Nc1ccc(C(F)(F)F)cc1Cl)C(=O)OC(C#N)c1cccc(Oc2ccccc2)c1` (stereo not given in full) [tau-Fluvalinate] as the molecule, how does the LEL (dog [13]) read?
Answer: The LEL was 12 mg/kg/day.

Question: What about the LOAEL (dog [13]) of the same molecule?
Answer: The LOAEL was 12 mg/kg/day.

Question: What about the NEL (dog [13]) of the same molecule?
Answer: Its NEL is 3 mg/kg/day.

Question: And the NOAEL (dog [13])?
Answer: The NOAEL was 3 mg/kg/day.

From EPA's ToxRefDB 2
